Entries after “also recorded” stand apart in the source; their conditions may differ.
Test system: not listed separately
Test: Solubility of NA32176A (physicochemical properties)
Details: qualitative, by solvent; listed as NA32176A
Source text: Physicochemical properties of the thus obtained physiologically active substance NA32176A are shown below.

Question: For `CC(C)(CO)C(O)C(=O)NCCC(=O)NCCSCC1C(=O)CCC1C(=O)O` [Compound 1E, (1R,2S)-2-[N-(panthoyl- -alanylamido)ethylthio]methyl-3-oxo-1-cyclopentanecarboxylic Acid], which Solubility is on record?
Answer: soluble in a lower alcohol, water or dimethylsulfoxide; also recorded: insoluble in hexane or petroleum ether

Test system: PC12 cells
Test: Neuron-like neurite extension on PC12 cells
Assay type: cell-based, rat
Details: morphological change observed microscopically one day after adding test compound
Source text: Neuron-like neurite extension effect of the compounds of this invention on PC12 cells
The effect of the compounds of the invention was examined by a modification of the method of Green et al., Ann. Rev. Neurosci., 3, 353, 1980, and evaluated in terms of morphological change of PC12 cells and a level of the change. That is, PC12 cells were inoculated on Dulbecco-modified Eagle's medium supplemented with 10% calf fetal serum and 10% equine serum in approximately 100,000 cells/ml. The cells were incubated at 37° C. overnight in 5% CO2 using collagen-coated 96 well multiplates. Morphological change of the cells was microscopically observed one day after the test compound was added to each well under this conditions.
The minimum effective dose (MED, g/ml) of each compound on PC12 cells that caused neuron-like neurite extension is shown in Table 2 below.

Question: Which Minimum effective dose (MED) to cause neuron-like neurite extension on PC12 cells does the source give for `CC(=O)N[C@@H](CSCC(CCC(=O)O)C(=O)c1ccccc1)C(=O)O` (stereo partly drawn) [Compound 38D, 4-[(2R)-{(2-acetylamino-2-carboxy)ethylthio}]methyl-5-oxo-5-phenylpentanoic acid] here?
Answer: 6.3 µg/mL

Question: With `COC(=O)[C@H](CSCC1CC(C(=O)O)CC1=O)NC(C)=O` (stereo partly drawn) [Compound 2A, 4-[(2R)-(2-acetylamino-2-methoxycarbonyl)ethylthio]methyl-3-oxo-1-cyclopentanecarboxylic Acid] as the molecule, how does the Minimum effective dose (MED) to cause neuron-like neurite extension on PC12 cells read?
Answer: 3.2 µg/mL

Question: With `CC(=O)NC(CCCCCCCCCCSC[C@@H]1C(=O)CC[C@H]1C(=O)O)C(=O)O` (relative stereo) [Compound 9B, trans-2-[(11-acetylamino-11-carboxy)undecylthio]methyl-3-oxo-1-cyclopentanecarboxylic acid] as the molecule, how does the Minimum effective dose (MED) to cause neuron-like neurite extension on PC12 cells read?
Answer: 6.3 µg/mL

Question: For `CC(=O)N[C@@H](CSC[C@@H]1C(=O)CC[C@H]1C(=O)O)C(=O)N1CCN(c2ccccc2)CC1` [Compound 13B, (1R,2S)-2-[(2R)-2-acetylamino-3-oxo-3-{1-(4-phenyl)piperazinyl}propylthio]methyl-3-oxo-1-cyclopentanecarboxylic Acid], which Minimum effective dose (MED) to cause neuron-like neurite extension on PC12 cells is on record?
Answer: 1.6 µg/mL

Question: Which Minimum effective dose (MED) to cause neuron-like neurite extension on PC12 cells does the source give for “2-methyl-4-oxo-4-phenyl-3-(1-piperazinyl)methylbutyric Acid [Compound 41F]” here?
Answer: 6.3 µg/mL

Question: For `COC(=O)[C@H](CSCC1C(=O)c2ccccc2C1C(=O)O)NC(C)=O` (stereo partly drawn) [Compound 6A, 2-((2R)-(2-acetylamino-2-methoxycarbonyl)ethylthio)methyl-3-oxo-1-indanecarboxylic Acid], which Minimum effective dose (MED) to cause neuron-like neurite extension on PC12 cells is on record?
Answer: 25 µg/mL

Question: For “3-{2-(acetylamino)ethylthio}methyl-4-(4-methylphenyl)-4-oxobutyric Acid [Compound 12D]”, which Minimum effective dose (MED) to cause neuron-like neurite extension on PC12 cells is on record?
Answer: 13 µg/mL

Question: For “trans-2-[(2R)-(2-carboxy-2-pentafluoropropionylamino)ethylthio]methyl-3-hydroxymethyl-1-cyclopentanone [Compound 8B]”, which Minimum effective dose (MED) to cause neuron-like neurite extension on PC12 cells is on record?
Answer: 0.8 µg/mL

Question: Which Minimum effective dose (MED) to cause neuron-like neurite extension on PC12 cells does the source give for `C[n+]1cccc(CCCSCC2C(=O)CCC2C(=O)O)c1.[I-]` [Compound 15B, (1R,2S)-2-[3-{3-(1-methylpyridinium iodide)}propylthio]methyl-3-oxo-1-cyclopentanecarboxylic Acid] here?
Answer: 3.1 µg/mL

Question: For `COC(=O)[C@H](CSCC(CC(=O)O)C(=O)c1ccc(C)cc1)NC(C)=O` (stereo partly drawn) [Compound 13D, 3-{(2R)-(2-acetylamino-2-methoxycarbonyl)ethylthio}methyl-4-(4-methylphenyl)-4-oxobutyric Acid], which Minimum effective dose (MED) to cause neuron-like neurite extension on PC12 cells is on record?
Answer: 13 µg/mL

Question: For `CC(=O)N[C@@H](CSCC1=C[C@H](O)CC1=O)C(=O)O` [Compound 2C, (4R)-2-[(2R)-(2-acetylamino-2-carboxy)ethylthio]methyl-4-hydroxy-2-cyclopenten-1-one], which Minimum effective dose (MED) to cause neuron-like neurite extension on PC12 cells is on record?
Answer: 6.3 µg/mL

Question: With “4-(4-methoxyphenyl)-4-oxo-3-(1-piperidyl)methylbutyric Acid [Compound 3F]” as the molecule, how does the Minimum effective dose (MED) to cause neuron-like neurite extension on PC12 cells read?
Answer: 3.1 µg/mL

Question: Which Minimum effective dose (MED) to cause neuron-like neurite extension on PC12 cells does the source give for `CC(=O)N[C@@H](CSCC(CC(=O)O)C(=O)c1ccccc1)C(=O)O` (stereo partly drawn) [Compound 7D, 3-[(2R)-(2-acetylamino-2-carboxy)ethylthio]methyl-4-oxo-4-phenylbutyric Acid] here?
Answer: 13 µg/mL

Question: With “4-(1-piperazinyl)methyl-5-oxo-5-phenylpentanoic Acid [Compound 42F]” as the molecule, how does the Minimum effective dose (MED) to cause neuron-like neurite extension on PC12 cells read?
Answer: 1.6 µg/mL

Question: For `COC(=O)[C@@H]1CCCN1C(=O)[C@H](CSC[C@@H]1C(=O)CC[C@H]1C(=O)O)NC(C)=O` (relative stereo) [Compound 6B, trans-2-[(2R)-[2-acetylamino-3-{1-((2S)-2-methoxycarbonylpyrrolidinyl)}-3-oxo]propylthio]methyl-3-oxo-1-cyclopentanecarboxylic Acid], which Minimum effective dose (MED) to cause neuron-like neurite extension on PC12 cells is on record?
Answer: 1.6 µg/mL

Question: For `CC(=O)N[C@@H](CSCC1CC(C(=O)O)CC1=O)C(=O)O` (stereo partly drawn) [Compound 1A, 4-[(2R)-(2-acetylamino-2-carboxy)ethylthio]methyl-3-oxo-1-cyclopentanecarboxylic Acid], which Minimum effective dose (MED) to cause neuron-like neurite extension on PC12 cells is on record?
Answer: 3.2 µg/mL

Question: Which Minimum effective dose (MED) to cause neuron-like neurite extension on PC12 cells does the source give for “4-(4-methylphenyl)-4-oxo-3-(1-piperidyl)methylbutyric Acid [Compound 2F]” here?
Answer: 3.1 µg/mL

Question: With `CC(=O)N[C@@H](CSC[C@@H]1C(=O)CC[C@H]1C(=O)O)C(=O)N1CCOCC1` [Compound 2B, (1R,2S)-2-[(2R)-{2-acetylamino-3-(4-morpholinyl)-3-oxo}propylthio]methyl-3-oxo-1-cyclopentanecarboxylic Acid] as the molecule, how does the Minimum effective dose (MED) to cause neuron-like neurite extension on PC12 cells read?
Answer: 1.6 µg/mL

Question: With `COC(=O)[C@H](CSCC(CC(=O)O)C(=O)c1cccnc1)NC(C)=O` (stereo partly drawn) [Compound 32D, 3-[(2R)-(2-acetylamino-2-methoxycarbonyl)ethylthio]methyl-4-oxo-4-(3-pyridyl)butyric Acid] as the molecule, how does the Minimum effective dose (MED) to cause neuron-like neurite extension on PC12 cells read?
Answer: 3.1 µg/mL

Question: With `COC(=O)[C@H](CSCC(CC(=O)O)C(=O)c1ccc(OC)cc1)NC(C)=O` (stereo partly drawn) [Compound 9D, 3-[(2R)-(2-acetylamino-2-methoxycarbonyl)ethylthio]methyl-4-(4-methoxyphenyl)-4-oxobutyric Acid] as the molecule, how does the Minimum effective dose (MED) to cause neuron-like neurite extension on PC12 cells read?
Answer: 50 µg/mL

Question: With `COC(=O)[C@@H]1CCN1C(=O)[C@H](CSC[C@@H]1C(=O)CC[C@H]1C(=O)O)NC(C)=O` (relative stereo) [Compound 7B, trans-2-[(2R)-[2-acetylamino-3-{1-((2S)-2-methoxycarbonylazetidinyl)}-3-oxo]propylthio]methyl-3-oxo-1-cyclopentanecarboxylic Acid] as the molecule, how does the Minimum effective dose (MED) to cause neuron-like neurite extension on PC12 cells read?
Answer: 3.1 µg/mL

Question: Which Minimum effective dose (MED) to cause neuron-like neurite extension on PC12 cells does the source give for `COC(=O)[C@H](CSCC(CC(=O)O)C(=O)c1ccccc1)NC(C)=O` (stereo partly drawn) [Compound 8D, 3-[(2R)-(2-acetylamino-2-methoxycarbonyl)ethylthio]methyl-4-oxo-4-phenylbutyric Acid] here?
Answer: 6.3 µg/mL

Question: Which Minimum effective dose (MED) to cause neuron-like neurite extension on PC12 cells does the source give for `CN1CCN(CC(CC(=O)O)C(=O)c2ccccc2)CC1` (stereo not shown) [Compound 6F, 3-{1-(4-methylpiperazinyl)}methyl-4-oxo-4-phenylbutyric acid] here?
Answer: 3.1 µg/mL

Question: For `CC(=O)N[C@@H](CSC[C@@H]1C(=O)CC[C@H]1C(=O)O)C(=O)N1CCCC1` [Compound 1B, (1R,2S)-2-[(2R)-{2-acetylamino-3-oxo-3-(1-pyrrolidinyl)}propylthio]methyl-3-oxo-1-cyclopentanecarboxylic Acid], which Minimum effective dose (MED) to cause neuron-like neurite extension on PC12 cells is on record?
Answer: 3.2 µg/mL

Question: For “(1R,2S)-2-[(2R)-({2-carboxy-2-pentafluoropropionylamino)ethylthio]methyl-3-oxo-1-cyclopentanecarboxylic acid [Compound 4B]”, which Minimum effective dose (MED) to cause neuron-like neurite extension on PC12 cells is on record?
Answer: 3.2 µg/mL

Question: For `COC(=O)[C@@H]1CCC(=O)[C@H]1CSC[C@H](NC(C)=O)C(=O)N1CCCC1` (relative stereo) [Compound 5B, trans-2-[(2R)-{2-acetylamino-3-oxo-3-(1-pyrrolidinyl)}propylthio]methyl-3-methoxycarbonyl-1-cyclopentanone], which Minimum effective dose (MED) to cause neuron-like neurite extension on PC12 cells is on record?
Answer: 0.8 µg/mL

Test system: PC 12 cells
Test: not given
Details: qualitative, background art; cited from earlier work

Question: For `CN[C@@H]1C[C@H]2O[C@@](C)([C@@H]1OC)n1c3ccccc3c3c4c(c5c6ccccc6n2c5c31)C(=O)NC4` [staurosporin], which “PC 12 cell differentiation promoting activity” value is on record?
Answer: found to have the PC 12 cell differentiation promoting activity

Source: patent publication US6384063B1, “Compound having effect of promoting neuron differentiation” (Nippon Kayaku Kabushiki Kaisha, priority 1997, dated 2002)
